Laboratory results taken from ChEMBL document CHEMBL1681651, “A broad spectrum anticancer nucleoside with selective toxicity against human colon cells in vitro” (2011).
Values joined by “and” are separate entries in the source; they are usually repeats but may differ in a detail not shown here. Equal entries are not always repeated.

Legend:
Assay type in all cases: functional
[1] = system: PC-3; assay: Growth inhibition of human PC3 cells assessed as cell growth at 1 mM after 48 hrs by SRB assay; conditions: PC-3, 48 h, read-out: Activity
[2] = system: HCT-15; assay: Growth inhibition of human HCT15 cells after 48 hrs by […] growth inhibition assay; conditions: HCT-15, 48 h
[3] = system: MCF7; assay: Growth inhibition of human MCF7 cells assessed as cell growth at 1 mM after 48 hrs by SRB assay; design: Activity: scale not given: the % may be the effect or the level left
[4] = system: PC-3; assay: Growth inhibition of human PC3 cells assessed as cell growth at 1 uM after 48 hrs by SRB assay; conditions: PC-3, 48 h, read-out: Activity
[5] = system: HCC 2998; assay: Growth inhibition of human HCC2998 cells assessed as cell growth at 100 uM after 48 hrs by SRB assay; conditions: HCC 2998, 48 h, read-out: Activity
[6] = system: SNB-19; assay: Growth inhibition of human SNB19 cells assessed as cell growth at 10 uM after 48 hrs by SRB assay; conditions: SNB-19, 48 h, read-out: Activity
[7] = system: MDA-MB-468; assay: Growth inhibition of human MDA-MB-468 cells assessed as cell growth at 10 uM after 48 hrs by SRB assay; conditions: MDA-MB-468, 48 h, read-out: Activity
[8] = system: DU-145; assay: Growth inhibition of human DU145 cells assessed as cell growth at 10 uM after 48 hrs by SRB assay; conditions: DU-145, 48 h, read-out: Activity
[9] = system: HOP-92; assay: Growth inhibition of human HOP92 cells after 48 hrs by […] growth inhibition assay; conditions: HOP-92, 48 h
[10] = system: MDA-MB-231; assay: Growth inhibition of human MDA-MB-231 cells assessed as cell growth at 0.1 uM after 48 hrs by SRB assay; conditions: MDA-MB-231, 48 h, read-out: Activity
[11] = system: PC-3; assay: Growth inhibition of human PC3 cells assessed as cell growth at 0.1 uM after 48 hrs by SRB assay; conditions: PC-3, 48 h, read-out: Activity
[12] = system: SN12C; assay: Growth inhibition of human SN12C cells assessed as cell growth at 1 mM after 48 hrs by SRB assay; conditions: read-out: Activity
[13] = system: PC-3; assay: Growth inhibition of human PC3 cells assessed as cell growth at 100 uM after 48 hrs by SRB assay; conditions: PC-3, 48 h, read-out: Activity
[14] = system: TK-10; assay: Growth inhibition of human TK10 cells assessed as cell growth at 0.1 uM after 48 hrs by SRB assay; conditions: TK-10, 48 h, read-out: Activity
[15] = read-out: LC50 (the source's name)
[16] = read-out: pLC50 (the source's name) (converted)

With CNC(=O)NC[C@H]1O[C@@H](n2cnc3c(NC(=O)Nc4ccccc4)ncnc32)[C@H](O[Si](C)(C)C(C)(C)C)[C@@H]1O[Si](C)(C)C(C)(C)C the growth at 1000 µM [1] was 4%, the GI50 ([2]; read-out: GI50) was 3.62 µM and the CC50 [2, 15] was over 100 µM. The TGI ([2]; read-out: TGI) was over 100 µM, the GI50 ([2]; read-out: pGI50 (converted)) was 3.63 µM and the CC50 [2, 16] was over 100 µM. For the same compound, the TGI ([2]; read-out: pTGI) was over 100 µM, the Activity [3] was -21% and -16% and the growth at 1 µM [4] was 91%. The growth at 100 µM [5] was -79%, the growth at 10 µM [6] was 91% and the growth at 10 µM [7] was 99%. The growth at 10 µM [8] was 109%, the GI50 ([9]; read-out: GI50) was 1560 nM and the CC50 [9, 15] was 97.6 µM. It also gave a TGI ([9]; read-out: TGI) of 5.16 µM, a GI50 ([9]; read-out: pGI50 (converted)) of 1550 nM and a CC50 [9, 16] of 97.7 µM. It also gave a TGI ([9]; read-out: pTGI (converted)) of 5.13 µM, a growth at 0.1 µM [10] of 105% and a growth at 0.1 µM [11] of 93%. The growth at 1000 µM [12] was -90%, the growth at 100 µM [13] was 6% and the growth at 0.1 µM [14] was 110%.

In the case of CNC(=O)OC[C@H]1O[C@@H](n2cnc3c(NC(=O)Nc4ccccc4)ncnc32)[C@H](O[Si](C)(C)C(C)(C)C)[C@@H]1O[Si](C)(C)C(C)(C)C, the growth at 10 µM [6] is reported as 114%, the growth at 10 µM [7] is reported as 104% and the growth at 10 µM [8] is reported as 106%.
